Test results: ChEMBL document CHEMBL1127805 (J Med Chem, 1994)

What was measured:
[1] = target: Glutamate NMDA receptor; test: In vitro inhibition of [3H]glycine at NMDA receptor; assay type: protein-complex assay
[2] = target: Glutamate NMDA receptor; test: Compound was evaluated for in vitro inhibition of [3H]TCP at NMDA receptor; assay type: protein-complex assay
[3] = Compound was evaluated for harmaline-induced cGMP seizure in vivo through ip route; assay type: functional
[4] = system: Mus musculus; test: In vivo antagonist activity against seizures elicited by audiogenic administered intra peritoneally in mice; assay type: functional
[5] = system: Mus musculus; test: Compound was evaluated for nociception in electroshock mice model in vivo through ip route; assay type: functional
[6] = target: Glutamate NMDA receptor; test: Compound was evaluated for in vitro inhibition of [3H]MK-801 at NMDA receptor; assay type: protein-complex assay
[7] = system: Mus musculus; test: Antagonist activity in amphetamine hyperactivity seizure model in vivo through intraperitoneal route; assay type: functional; conditions: ip
[8] = target: Glutamate receptor ionotropic, NMDA 1 (Rattus norvegicus, UniProt P35439); test: Compound was evaluated for in vitro inhibition of cortical neuron at NMDA receptor
[9] = system: Mus musculus; test: In vivo antagonist activity against seizures elicited by NMDLA in mice administered intraperitoneally; assay type: functional; conditions: ip
[10] = system: Mus musculus; test: In vivo antagonist activity against seizures elicited by audiogenic, administered intra peritoneally in mice; assay type: functional
[11] = system: Mus musculus; test: Antagonist activity in PCP hyperactivity seizure model in vivo through subcutaneous route; assay type: functional; conditions: sc
[12] = system: Mus musculus; test: Compound was evaluated for audiogenic seizure in vivo through intra peritoneal route; assay type: functional
[13] = system: Mus musculus; test: Antagonist activity in audiogenic seizure model in vivo through icv route; assay type: functional
[14] = system: Mus musculus; test: In vivo antagonist activity against seizures elicited by NMDA in mice administered intraperitoneally; assay type: functional; conditions: ip
[15] = system: Mus musculus; test: Antagonist activity in forced swim model, in vivo through intraperitoneal route; assay type: functional; conditions: ip
[16] = system: Mus musculus; test: Antagonist activity in plus-maze in vivo through intraperitoneal route; assay type: functional; conditions: ip
[17] = system: Gerbillinae; test: Compound was evaluated for neuroprotection, gerbil in vivo through ip route; assay type: functional
[18] = system: Mus musculus; test: Separation-induced vocalization in vivo through ip route; assay type: functional
[19] = system: Rattus norvegicus; test: Compound was evaluated for neuroprotection, rat MCAO in vivo through iv route; assay type: functional
[20] = target: Glutamate [NMDA] receptor; test: Compound was evaluated for in vitro inhibition of myenteric plexus, guinea pig at NMDA receptor; assay type: protein-complex assay, Cavia porcellus
[21] = system: Mus musculus; test: In vivo antagonist activity against seizures elicited by audiogenic, administered perorally in mice; assay type: functional; conditions: po
[22] = system: Rattus norvegicus; test: Compound was evaluated for D-Ser-induced cGMP in vivo through ip route; assay type: functional

`NCC(=O)Nn1ccc2ccccc21` gave an IC50 [1] of 36000 nM, an EC50 [2] of 3600 nM and an IC50 [2] of 780000 nM.

`CCOC(=O)Cc1c(C(=O)O)[nH]c2cc(Cl)ccc12` gave an IC50 [1] of 630 nM and an MED50 [3] of 100 mg/kg.

`O=C(O)c1nc2c(Cl)cc(Cl)cc2[nH]1` gave an IC50 [1] of 800 nM.

For `O=C(Nc1ccccc1)N[C@H]1C[C@H](C(=O)O)Nc2cc(Cl)cc(Cl)c21`, the ED50 [4] was > 100 mg/kg and the IC50 [1] was 7.8 nM.

For `O=C(c1c(O)nc2cc(Cl)ccc2c1O)C1CC1`, the ED50 [4] was 4.1 mg/kg.

Molecule `O=c1[nH]c2cc(Cl)c(Cl)c([N+](=O)[O-])c2[nH]c1=O` [LICOSTINEL] has an ED50 [5] of 5 mg/kg.

For `N[C@H](/C=C/CCO)C(=O)O`, the EC50 [6] was 330 nM and the IC50 [1] was 240 nM.

`N[C@@H]1CCN(O)C1=O` showed an ED50 [7] of 30 mg/kg, a Ki [8] of 2500 nM and an IC50 [1] of 12500 nM. For the same molecule, the ED50 [9] was 890 mg/kg, the ED50 [10] was 53 mg/kg and the ED50 [11] was 30 mg/kg.

For `O=C(O)Cn1c(=O)c(=O)[nH]c2cc(Cl)c(Cl)cc21`, the IC50 [1] was 110 nM.

Molecule `CC(CN(C)C)OC(=O)c1cc(O)c2c(Cl)cc(Cl)cc2n1` (stereo not drawn) has an ED50 [12] of 62 mg/kg.

`N[C@H]1C(=O)N(O)C[C@H]1O` showed a Ki [8] of 750 nM and an IC50 [1] of 1300 nM.

In the case of `O=C(O)c1cc(=O)c2ccccc2[nH]1` [TRANSTORINE], the ED50 [4] is reported as > 250 mg/kg and the ED50 [13] is reported as 20 nM.

In the case of `COC(=O)C1(N)CC1`, the ED50 [14] is reported as 46 mg/kg, the ED50 [15] is reported as 100 mg/kg and the IC50 [1] is reported as > 40000 nM. For the same molecule, the ED50 [16] was 200 mg/kg.

Work on `N[C@@H](/C=C/CCO)C(=O)O` yielded an EC50 [6] of 930 nM and an IC50 [1] of 750 nM.

For `Oc1nc2cc(Cl)c(Cl)cc2n2ccnc12`, the IC50 [1] was 6000 nM.

`O=C1C2CC(CCN2)N1O` (stereo not drawn) gave a Ki [8] of 3500 nM and an IC50 [1] of 19000 nM.

Work on `O=c1[nH][nH]c(=O)c2c1[nH]c1cc(Cl)cc(Cl)c12` yielded an MED50 [17] of 10 mg/kg and an IC50 [1] of 410 nM.

For `O=C(O)c1cc(O)c2c(Cl)cc(Cl)cc2n1`, the ED50 [18] was 67 mg/kg, the ED50 [4] was > 250 mg/kg and the ED50 [13] was 7.5 nM.

Work on `N#Cc1cc2c(cc1[N+](=O)[O-])=NC(=O)C(=O)N=2` yielded an IC50 [1] of 4800 nM.

`O=C(O)c1cc(S)c2ccc(Cl)cc2n1` gave an ED50 [19] of 20 mg/kg, an IC50 [20] of 5000 nM and an IC50 [1] of 400 nM.

With `O=c1[nH]c2cc(Cl)ccc2c(O)c1-c1cccc(Oc2ccccc2)c1` the ED50 [21] was 0.9 mg/kg, the IC50 [1] was […] and the ED50 [10] was 0.9 mg/kg.

In the case of `O=C(O)Cc1c(C(=O)O)[nH]c2cc(Cl)ccc12`, the IC50 [1] is reported as 960 nM, the ED50 [22] is reported as 5.4 µg and the ED50 ([22]; Rattus norvegicus, ip, read-out: ED50) is reported as > 50 mg/kg.
